For assay [1], the system named is NOD mice. Put plainly: Incidence of diabetes in NOD mice treated through drinking water. The class given is in vivo, mouse. The procedure: Blocking the activity of PGS-2 with drugs that reduce PG production can be used to prevent or slow the development of IDD disease. When NOD mice with established, active autoimmune disease are treated through their drinking water with a combination of drugs, including a PGS-1/PGS-2 inhibitor, low dose indomethacin (3 μg/ml), in conjunction with an inducible nitric oxide synthase (iNOS) inhibitor, aminoguanidine, which potentiates the effects of indomethacin, the incidence of diabetes in NOD mice drops by 42% in comparison to control animals and animals treated with either low dose indomethacin or aminoguanidine alone.
Treatment of NOD mice at a time when autoimmunity is in its final stages with high doses (15 μg/ml) of indomethacin alone reduces the incidence of diabetes from 77% to 22%.

Assay [2] has as its system monocytes. Put plainly: PGE2 production by monocytes, specific ELISA. The class given is cell-based, human. The text has this:
In addition to the expression of PGS-2, the production of PGE2 by monocytes from these same control and autoimmune individuals was examined.
Background: ELISA stands for enzyme-linked immunosorbent assay.

A further assay has as its system PGS-2 mRNA. The assay is described as follows: PGS-2 mRNA expression in monocytes by RT-PCR. The class given is cell-based, human. The procedure: RT-PCR detection of PGS-2 mRNA in human monocytes. Human peripheral blood is collected in sterile green top 10 ml tubes. Assays are preferably performed with 5 ml or more of blood. The blood is then centrifuged on a ficoll gradient for 30 minutes at 1500 rpm. Monocytes are isolated to >80% purity by adherence for 2 hours to a plastic culture surface. Cells are then cultured overnight in RMPI-1640 plus endotoxin-free fetal calf sera. The cells are harvested after 16 hours of culture by cold Ca^++/Mg^++-free PBS, the cells are counted, and viability is assessed. Monocytes cultured in 10 μg/ml LPS serve as a positive control for each sample tested. The poly mRNA is then harvested from a standard 10^5 monocytes using a kit (Quiagen). The mRNA is then reverse transcribed in a standard reaction mixture. The cDNA is then amplified by PGS-2-specific primers designed by our laboratory using a standard […] for 45 cycles. The PCR product is then run out on agarose gels with known standards and the size confirmed. β-actin is used as an internal control in these reactions. The identity of RT-PCR products were confirmed by size and Southern blotting using a PGS-2-specific labeled internal probe.
Monocytes were examined from ICA+ humans with a high risk of developing IDD, individuals with established SLE and autoimmune thyroid disease, and healthy controls. A portion of the pre-diabetic ICA+ individuals examined are enrolled in an IDD trial where they receive daily subcutaneous insulin as a preventative therapy. Monocytes of humans without autoimmune disease infrequently express PGS-2 mRNA (12%), whereas monocytes from subjects who are at high risk for the development of IDD express PGS-2 at a highly significant frequency (84%, p<0.0001).

Assay [3] concerns monocytes. The assay is described as follows: TNFα and IL-1β in supernatants of monocytes cultured 24 hours. The class given is cell-based, human. The settings on record: monocytes cultured in vitro 24 hours. Here is the method:
The expression of PGS-2 can be induced by several factors including cytokines produced by monocytes such as TNFα and IL-1β. To evaluate the possibility that monocytes of pre-IDD subjects produce large quantities of IL-1 and TNFα which induces PGS-2, the levels of these cytokines were measured in supernatants of monocytes cultured in vitro for 24 hours from pre-IDD and healthy controls. […] The lower levels of these cytokines is consistent with the constitutive production of prostaglandins which suppress the production of both TNFα and IL-1β.

Assay [4] has as its system monocytes. The assay is described as follows: Monokine production in monocyte culture supernatants with and without NS-398. It counts as cell-based, human. To be noted: monocytes of healthy controls and pre-diabetic population. The text has this: The monocyte production of the monokines IL-1β, TNFα, IL-1RA, and IL-10 in culture supernatants from healthy controls and the pre-diabetic population in the presence and absence of the PGS-2-specific inhibitor, NS-398, have been evaluated. […] It has also been determined that, despite enhanced levels of PGS-2 and PGE2 in diabetic and pre-diabetic individuals, there is no corresponding increase in IL-10. […] Therefore, a further aspect of the subject invention is a method for detecting evidence of autoimmune disease, particularly diabetes, which comprises evaluating monocytes to determine if those monocytes have a reduced response to IL-10 with regard to PGS-2 expression. Such reduced response would be evidence of disease. In accordance with these findings, compounds that inhibit prostaglandin production can be used to modulate the production of anti-inflammatory monokines in order to limit the immune response. The spontaneous expression of PGS-2 and the production of PGE2 by pre-diabetic monocytes may influence their function, limiting their ability to produce monokines that would have a potent effect on limiting the autoimmune response to the β-cells of the islet and therefore would promote the progression to diabetes.

The subject of assay [5] is NOD mice. Put plainly: PGE2 production by monocytes of NOD mice after IL-10 administration. It counts as in vivo, mouse. To be noted: administration of IL-10.

This note sets out measurements from US6953578B2, “Materials and methods for detection and treatment of immune system dysfunctions” (University of Florida Research Foundation, Inc., priority 1996, dated 2005).

Marks after values point to notes of the source that are not given here.

With `COc1ccc2c(c1)c(CC(=O)O)c(C)n2C(=O)c1ccc(Cl)cc1` [indomethacin], the “development of IDD” value in the assay with NOD mice [1] (NOD mice treated at an early stage of disease) is listed as “effectively blocks the development of IDD”. The incidence of diabetes in the assay with NOD mice [1] (NOD mice, autoimmunity in final stages, indomethacin alone 15 μg/ml, untreated 77%) was determined as 22%.

As to insulin, in the assay with monocytes [2] (monocytes of ICA+/PGS-2+ subjects on insulin therapy), the PGE2 turned out to be 5805 ± 1544 pg/mL. In addition, in the assay on PGS-2 mRNA (ICA+ pre-IDD subjects, insulin-treated, Table 6), the “% PGS-2 +” value is 73.6** %. Also, the “% Positive (PGS-2 mRNA)” value in the assay on PGS-2 mRNA (ICA+ subjects on daily subcutaneous preventative insulin, Table 2) is listed as 71%. Moreover, the “PGS-2 mRNA or protein expression” value with PGS-2 mRNA (preventative insulin therapy in ICA+ subjects) was “does not appear to affect”. For the same molecule, the “TNFα and IL-1β levels, insulin-treated versus untreated pre-IDD” value in the assay with monocytes [3] is recorded as “no significant differences”.

On to `CS(=O)(=O)Nc1ccc([N+](=O)[O-])cc1OC1CCCCC1` [NS-398], for which, in the assay with monocytes [2] (monocytes of control and autoimmune individuals, FIG. 1), the “production of PGE2” value is on record as “completely blocked”. Besides, the “PGS-2 production in vitro” value with monocytes [2] (monocytes of individuals at high risk for IDD) is given as “effectively blocks all PGS-2 production”. In addition, in the assay on monocytes [4], the “production of IL-1RA” value is “promotes the production” and the “production of IL-10” value was “promotes the production”.

B1: IL-10: monokine that tends to downregulate inflammation and immune responses (protein, UniProt P22301 19-178, looked up)
Interleukin-10: SPGQGTQSENSCTHFPGNLPNMLRDLRDAFSRVKTFFQMKDQLDNLLLKESLLEDFKGYLGCQALSEMIQFYLEEVMPQAENQDPDIKAHVNSLGENLKTLRLRLRRCHRFLPCENKSKAVEQVKNAFNKLQEKGIYKAMSEFDIFINYIEAYMTMKIRN
For B1, in the assay on NOD mice [5], the “PGE2 production by monocytes” value is “does not inhibit PGE2 production”.
